Among the data in patent US12473328 are ring closure, conversion and ring closure, crude yield values, retold here.

For data set [1] the following is noted: resin.
For data set [2] the following is noted: disulfide bond; 44-membered ring; resin; 3 steps.
The mark [3] stands for this setting: crosslinker bond, 30-membered ring.
The mark [4] stands for this setting: disulfide bond, 20-membered ring.

Where two headings read alike, the source gives them in different places.

H-ACREGFLRCLHRPTVCNG-H2: the ring closure, conversion in data set [1] (crosslinker bond, 31-membered ring) stood at 99%.
With H-ACSWPARCLHQDLCA-NH2, the ring closure, conversion in data set [1] (setting [3]) amounted to 99%.
Substance H-ACYNEFGCEDFYDICA-NH2 had a ring closure, conversion in data set [1] (setting [3]) of 99%.
For the substance H-CRVPGDAHHADSLC-NH2, the ring closure, crude yield in data set [2] was 22%. Besides, the ring closure, conversion came out at 99% in data set [1] (crosslinker bond, 49-membered ring) and 22% in data set [1] (disulfide bond, 44-membered ring).
H-CYFQNCPRG-NH2 showed a ring closure, conversion in data set [1] (setting [4]) of 95%.
In data set [1] (setting [4]), “H-KCNTATCATQRLANFLVHSSNFGPILPPTNVGSNTY-NH2” yielded a ring closure, conversion of 99%.
H-VRCPGAAHHADSLC-NH2 showed a ring closure, conversion in data set [1] (disulfide bond, 38-membered ring) of 99%.
For H-VRVPGCAHCADSLY-NH2, the ring closure, conversion in data set [1] (crosslinker bond, 19-membered ring) came out at 99%.
